In patent publication US20070202547A1, “Methods For Detecting Substances Which Bind To The Amyloid Precursor Protein Or Beta Amyloid Fragments, And Binding Compounds” (priority 2004, published 2007):

Legend:
Type in all cases: biochemical
gamma-secretase = gamma-secretase (Homo sapiens, UniProt P05067); assay: Gamma-secretase cleavage of CTFβ substrate (HeLa cell membrane extract); details: Aβ40 detection with 6E-10/G2-10, read-out: CTFβ CLEAVAGE AT POSITION 40
Protocol: Accordingly, Examples 1-4 were tested for their ability to inhibit gamma-secretase cleavage of both a full-length CTFβ substrate, as described in Li, 2000, Proc. Natl Acad Sci. 97:6138-6143. The assays were carried out as follows:
Inhibition of CTFβ Cleavage
• 10 μL 10× protease inhibitor cocktail (Roche, cat # 1836153) • 25 μL 4× Buffer (50 mM PIPES pH7.0, 150 mM KCl, 5 mM MgCl2, 5 mM CaCl2) • 2 μL 10% CHAPSO • 5 μL HeLa cell membrane extract characterized for gamma-secretase activity • 7 μL 25 μM bacterially expressed CTFβ • 51 μL water • 1 μL compound in DMSO The reactions were incubated at 37° C. for 150 min and quenched with 25 μL 5× RIPA buffer (750mM NaCl, 5% NP-40, 2.5% DOC, 0.5% SDS, 250 mM Tris H8.0). Detection:
Gamma-secretase cleavage of the CTFβ substrate was assessed by incubating 50 μL of the reaction with 25 μL of 4 μg/mL biotinylated antibody 6E-10 which is specific for the N-terminal region of Aβ, and 25 μL of 1.5 μg/mL of a ruthinylated antibody G2-10, which is specific to the C-terminal region of Aβ40. The C-terminal region is present only after gamma secretase cleavage of Aβ. The antibodies were allowed to bind overnight at room temperature. The following day, 25 μL of 80 μg/mL streptavidin-coated Dynabeads (M-280) were added to each reaction, allowed to bind for 30 minutes, and quenched with 275 μL IGEN assay buffer. Quantification of the gamma-secretase cleavage products was carried out using an Origen Analyzer.

BACE2 [1] = target: T1, BACE2 (Homo sapiens, UniProt P05067, A673V/D672E/K670N/M671F); assay: BACE2 cleavage of APP at the beta-secretase cleavage site (ALPHA); details: MBP-biotinylated APP fusion protein with NFEV site, pH 4.5, 30 minutes
T1 construct: IC50, BACE2 cleavage of APP at the beta-secretase cleavage site; other: MBP-biotinylated APP fusion protein with NFEV s; activity against BACE2 cleavage of APP at the beta-secretase position; other: result in words; biotin label
Protocol: (§1) The effect of Examples 1-4 on cleavage of APP at the beta-secretase cleavage site was assayed as follows:
(§2) • 25 μL 0.2 M Sodium Acetate, pH 4.5 • 10 μL 10× protease inhibitor cocktail (Roche, cat # 1836153) • 10 μL Bovine Serum Albumin (1 mg/mL solution) • 4 μL 5% CHAPS • 1 μL EDTA (150 mM, pH 4.5) • 2 μL DF • 4 μL MBP(Maltose binding protein)—biotininylated APP fusion protein containing the NFEV BACE cleavage site (bacterially expressed, 10 μM solution) • 1 μL DMSO or compound dissolved in DMSO • 2 μL BACE2 (CHO cell expressed protein, 250 nM) • 41 μL distilled water The reactions were incubated at 37° C. for 30 minutes, and were then quenched with 4 μL 1 M TrisHCl, pH 8.0. Detection of MBP Biotin APP(NF) Cleavage Product using ALPHA ALPHA Assay Mix was Prepared as Follows: • 20 μL Streptavidin Donor Beads (from AlphaScreen General IgG (Protein A) Detection Kit Perkin Elmer Life Sciences); 10,000 pts (Part Number 6760617M) • 20 μL Protein A Acceptor beads (from AlphaScreen General IgG (Protein A) Detection Kit Perkin Elmer Life Sciences); 10,000 pts (Part Number 6760617M) • 3.7 μL Affinity purified anti-NF antibody (203 μg/mL) (described in WO 02/094985) • 4.5 mL 0.1% BSA in PBS • 4 μL of quenched reaction mixture was combined with 46 μL of the assay mix. The reactions were incubated at room temperature overnight and read using the ALPHAQuest plate reader.

BACE2 [2] = assay: BACE2 cleavage of EV amyloid / Aβ (mass spectrometric analysis); details: 100 μM, result in words
Protocol: The effect of inhibition of BACE 2 cleavage of EV amyloid was assayed using a protocol described in Shi et al, 2003, J. Biol. Chem., 278:21286-21294. The results of assaying Examples 1-4 at 100 μM are shown below: […]

BACE2 [3] = target: T2, BACE2 (Homo sapiens, UniProt P05067, K670N/M671F/D672E/A673V); assay: BACE2 cleavage of APP at the beta-secretase cleavage site (ALPHA); details: result in words
T2 construct: IC50, BACE2 cleavage of APP at the beta-secretase cleavage site; other: MBP-biotinylated APP fusion protein with NFEV s; activity against BACE2 cleavage of APP at the beta-secretase position; other: result in words; biotin label
Protocol: as §1, §2

BACE1 [4] = target: BACE1 (Homo sapiens, UniProt P56817); assay: BACE1 cleavage of full-length APP or beta-site P5/P5' peptide (FIG. 3); details: relative to DMSO-treated
BACE1 (Homo sapiens, UniProt P56817), sequence (P56817 46-501): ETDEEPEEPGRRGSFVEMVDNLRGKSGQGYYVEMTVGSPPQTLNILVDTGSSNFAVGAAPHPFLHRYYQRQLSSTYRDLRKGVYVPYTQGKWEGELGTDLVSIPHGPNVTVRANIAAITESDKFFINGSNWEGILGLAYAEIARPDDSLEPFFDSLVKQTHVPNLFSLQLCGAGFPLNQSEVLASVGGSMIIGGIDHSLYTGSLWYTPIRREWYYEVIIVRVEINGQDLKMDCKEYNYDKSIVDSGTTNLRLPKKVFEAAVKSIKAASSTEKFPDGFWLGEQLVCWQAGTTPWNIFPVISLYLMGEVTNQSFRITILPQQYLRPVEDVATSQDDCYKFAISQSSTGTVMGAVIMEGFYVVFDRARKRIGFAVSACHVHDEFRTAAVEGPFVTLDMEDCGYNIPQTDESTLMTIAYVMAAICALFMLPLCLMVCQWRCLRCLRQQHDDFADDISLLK
Text: (§3) FIG. 3(A) depicts inhibition by Statine-Val, which is a known inhibitor of BACE cleavage of both APP and APP fragments, including the beta-site P5/P5′ peptide fragment. […] depicts inhibition by Example 4. The graphs depict inhibition of cleavage of a full-length APP substrate (∘) or the beta-site P5/P5 fragment. (□). Enzymatic activity is shown relative to DMSO-treated BACE cleavage.

BACE1 [5] = assay: as above; details: relative to DMSO-treated
Text: as §3

IC50 (gamma-secretase) | IC50 (BACE2 [1]) | inhibition of BACE1 cleavage of beta-site P5/P5' peptide fragment (BACE1 [4]) | Compound | effect on BACE2 cleavage at all Aβ sites (BACE2 [2]; FIG. 1) | effect on BACE2 cleavage at position 34 (BACE2 [2]) | effect on BACE2 cleavage at positions 19 and 20 (BACE2 [2]) | activity against BACE2 cleavage of APP at the beta-secretase position (BACE2 [3]) | inhibition of BACE1 cleavage of full-length APP substrate (BACE1 [5])
49 µM | ~100 µM |  | O=C(O)COc1ccc2c(c1)CC(CCc1ccccc1)O2 (stereo not drawn) [Example 3] |  |  |  |  | 
 | 20 µM | inhibits cleavage of APP only | Oc1cc2c(cc1CCCOc1ccc(-c3nnn[nH]3)cc1Cl)OC(CCc1ccccc1)C2 (stereo not drawn) [Example 4, 6-{3-[2-chloro-4-(1H-tetrazol-5-yl)phenoxy]propyl}-2-(2-phenylethyl)-2,3-dihydro-1benzofuran-5-oI] | suppressed cleavage at all Aβ sites | blocked cleavage at position 34 | enhanced cleavage of Aβ at positions 19 and 20 | capable of inhibiting BACE2 cleavage of APP at the beta-secretase position with similar effectiveness to their inhibition of BACE1 cleavage at the same site | inhibits cleavage of APP only
